# Test results: article PMC6268373, “Systematic Study of the Physicochemical Properties of a Homologous Series of Aminobisphosphonates” (Molecules, 2012)
# How the values were obtained:
# [1] = Thermal analysis (TG/DTA and TGA 7); format: physicochemical; conditions: for Td: 5 °C/min; for Temp. range of 1st cleavage: lower limit taken at 0.5 wt-%; for Td (decomposition onset): average from both instruments; for Td (decomposition onset) / Temp. range of dehydration / onset T of dehydration: heating rate 5 °C/min
# Protocol: Thermal decomposition paths with evaluation of crystal water content were obtained parallel with two instruments; Perkin Elmer STA 6000 thermogravimetric TG/DTA and Perkin Elmer TGA 7 analyzers (Perkin Elmer, Massachusetts, USA). Measurements were carried out in an open platinum crucible (the higher 5 mm crucible was used in TG/DTA and a shallower 2 mm crucible in TGA 7) under air atmosphere (flow rate of 45 mL/min) with a heating rate of 5 °C/min over the temperature range of 25−700 °C. The temperature calibration of STA 6000 was made using melting points of indium (156.60 °C) and zinc (419.5 °C) standards. For TGA 7 magnetic Curie-point calibration technique (Alumel, Ni, Perkalloy, Fe) was used. The weight balance of both instruments was calibrated by measuring a standard weight of 50 mg at room temperature. The sample weights used in the measurements were about 4–8 mg, and for each bisphosphonate, it was attempted to keep the same on both instruments. The melting/dehydration/decomposition behavior of the compounds was also visually monitored using a Stuart Scientific SMP3 melting point apparatus.
# [2] = Protonation constants by (traditional) potentiometric titration (TPT), SUPERQUAD; conditions: overall protonation, zero level H2L2−, 0.1 M NaNO3, 25 °C
# Excerpt: Results were obtained from […] as overall stability constants (log β values); following the chosen zero level H2L^2−. This zero level H2L^2− was chosen in the calculations to avoid any accumulation of errors of protonation constants at different pH ranges. The log β results for reactions (4) and (5) obtained in the final refinements are listed in Table S3 (see Supporting Information) with error limits (±3σ), number of points/number of titrations and χ^2/Σ statistics.
# The details of the experiments using (traditional) potentiometric titration are presented in the Supporting Information. The results of the determination by Sirius instrument are shown in the Supporting Information. Potentiometric titrations of the compounds were performed with the PCA200 apparatus (Sirius Analytical Instruments Ltd, Forest Row, East Sussex, UK).
# Table S2. The effect of pH on aqueous solubility (mg/L) of aminoalkylbis(phosphonates) […]
# Solubility (g/L) of Compound
# Determination of the Protonation Constants Using (traditional) Potentiometric Titration. Reagents:
# Aqueous 0.1 M NaOH was prepared from Titrisol ampoules (Merck) and 0.1 M HNO3 from Convol ampoules (BDH). The background solution was prepared by dissolving NaNO3 in deionised water.
# The NaNO3 and NaCl used in reference electrode were p.a. grade (Merck). The water used in the dilutions and titration solutions was purified with Milli-RO and Milli-Q water purification systems […]
# Potentiometric measurements: The protonation equilibria was studied in aqueous 0.1 M NaNO3 at 25.0 ± 0.1 °C through a series of potentiometric EMF titrations carried out with a Schott-Geräte GmbH […]
# The cell arrangement for the measurement of the hydrogen ion concentration [H+] was as follows:
# −RE […] equilibrium solution […] GE+ (1) where GE denotes a glass electrode (Schott N2680), and RE is Hg, Hg2Cl2 […] 0.01 M NaCl, 0.09 M NaNO3. Expression (2) is valid assuming that the activity coefficients are constant.
# The cell parameter E0 and the liquid junction coefficient jH, valid in acidic solutions, were determined for each titration by adding a known amount of HNO3 to the background electrolyte. The value of the liquid junction coefficient jOH, valid in basic solutions, was determined periodically. Only stable EMF readings were used in the calculations.
# During the measurements of the protonation equilibria, aqueous 0.1 M NaOH or 0.1 M HNO3 was […]
# Four to eight independent titrations were carried out for each ligand. The number of data points used in […]
# Data treatment: Protonation and deprotonation of the ligands were controlled by addition of HNO3 or NaOH. The curves of ZH versus pH were drawn to visualize the experimental data sets. ZH describes the average number of H+ ions added or liberated per mole of ligand and is given by the relationship […]
# where CH denotes the total concentration of protons calculated over the zero level H2L2−.
# In the evaluation of the equilibrium constants, the following two-component equilibria were utilized:
# H2L2− ⇋ H2-xL(2+x)– + xH+ , x = 1–2; β–x (4) xH+ + H2L2− ⇋ Hx+2Lx–2, x = 1–3; βx (5)
# Mathematical analysis of the systems involves a search for protonation models and equilibrium constants that best describe the experimental data. The calculations were carried out with the computer […]
# 1200). The sample standard deviation Σ and the χ2 statistics used as criteria in the selection of the models were those provided by the program. As a means to improve the confidence level, the error limits for log β values determined in this study are reported as three times the standard deviation estimated by the program.
# Figure S2. ZH vs. pH for protonation of compounds (a) 1; (b) 2; (c) 3; (d) 4 and (e) 5.
# [3] = Aqueous solubility of saturated solution at 21 °C (phosphorus determination by molybdenum blue spectrophotometry); conditions: for pH of saturated solution: saturated aqueous solution, agitation time 30 min; for pH of saturated solution / solubility at 30 min: 21 °C; for solubility at 30 min: Milli-Q water, unbuffered, thermodynamic from solid
# [4] = Effect of pH on aqueous solubility; conditions: for solubility at 30 min: water, pH adjusted with NaOH or HCl, 21 °C, thermodynamic from solid; for pH of solubility minimum: pH range 0.5 to 11.0
"Td ([1]; TG/DTA, higher crucible, air) [°C]","Temp. range of 1st cleavage ([1]; TG/DTA, higher crucible)","Td ([1]; TGA 7, shallow crucible, air) [°C]","Temp. range of 1st cleavage ([1]; TGA 7, shallow crucible)",Td (decomposition onset) ([1]; air) [°C],pH of saturated solution [3],"solubility at 30 min ([4]; pH 0, aqueous buffer) [µg/mL]","solubility at 30 min ([4]; pH 1, aqueous buffer) [µg/mL]","solubility at 30 min ([4]; pH 2, aqueous buffer) [µg/mL]","solubility at 30 min ([4]; pH 3, aqueous buffer) [µg/mL]","solubility at 30 min ([4]; pH 4, aqueous buffer) [µg/mL]","solubility at 30 min ([4]; pH 5, aqueous buffer) [µg/mL]","solubility at 30 min ([4]; pH 6, aqueous buffer) [µg/mL]","solubility at 30 min ([4]; pH 7, aqueous buffer) [µg/mL]","solubility at 30 min ([4]; pH 8, aqueous buffer) [µg/mL]","solubility at 30 min ([4]; pH 9, aqueous buffer) [µg/mL]","Onset temperature of first cleavage ([1]; TG/DTA, higher crucible) [°C]","Onset temperature of first cleavage ([1]; TGA 7, shallow crucible) [°C]",solubility at 30 min ([3]; water) [µg/mL],"temperature of first decomposition step (cleavage of amino group / degradation) ([1]; thermogravimetry, air)",other results,SMILES
222,168–252 °C,225,166–253 °C,224,1.94,–,–,–,–,–,–,–,–,–,–,–,–,–,–,"Onset of 1st cleavage (in parentheses) ([1]; TG/DTA, higher crucible): 222 °C; Onset of 1st cleavage (in parentheses) ([1]; TGA 7, shallow crucible): 225 °C; logβx ± 3σ, x = 1 (H3L−) [2]: 6.26 ± 0.01; logβx ± 3σ, x = 2 (H4L) [2]: 8.38 ± 0.02; logβx ± 3σ, x = 3 (H5L+) [2]: 8.98 ± 0.20; logβx ± 3σ, x = −1 (HL3−) [2]: −10.69 ± 0.01; logβx ± 3σ, x = −2 (L4−) [2]: −22.82 ± 0.02","NCCCC(O)(P(=O)(O)O)P(=O)(O)O [Compound 2, (4-amino-1-hydroxybutylidene)bisphosphonic acid, reference compound]"
190,33–175 °C,191,33–173 °C,191,2.51,2100,1150,860,1170,1080,1110,1230,1190,1230,1190,77,84,2070,–,"solubility at 30 min ([4]; pH 10, aqueous buffer): 1200 µg/mL; solubility at 30 min ([4]; pH 11, aqueous buffer): 1270 µg/mL; Temp. range of dehydration ([1]; air): 33–175 °C; onset T of dehydration ([1]; air): 81 °C; temperature at which dehydration is initiated ([1]; thermogravimetry, air): ~ 90 °C","NCCCCCCCCC(O)(P(=O)(O)O)P(=O)(O)O [Compound 6, (9-Amino-1-hydroxynonylidene)bisphosphonic acid]"
185,175–211 °C,189,161–227 °C,187,3.28,–,–,–,–,–,–,–,–,–,–,185,189,217,about 200 °C,water solubility (in words) ([3]; water): hundreds of milligrams,"NCCCCCCCCCC(O)(P(=O)(O)O)P(=O)(O)O [Compound 7, (10-Amino-1-hydroxydecylidene)bisphosphonic acid]"
199,50–146 °C,204,39–149 °C,202,4.71,180,80,50,80,180,230,270,290,250,290,73,70,58,200 °C,"pH of solubility minimum [4]: ~2; solubility at 30 min ([4]; pH 10, aqueous buffer): 400 µg/mL; solubility at 30 min ([4]; pH 11, aqueous buffer): 370 µg/mL; Temp. range of dehydration ([1]; air): 40–148 °C; onset T of dehydration ([1]; air): 72 °C","NCCCCCCCCCCC(O)(P(=O)(O)O)P(=O)(O)O [Compound 8, (11-Amino-1-hydroxyundecylidene)bisphosphonic acid]"
185,163–232 °C,191,155–221 °C,188,4.05,130,80,70,80,140,200,210,200,240,250,185,191,30,about 200 °C,"pH of solubility minimum [4]: ~2; solubility at 30 min ([4]; pH 10, aqueous buffer): 400 µg/mL; solubility at 30 min ([4]; pH 11, aqueous buffer): 470 µg/mL","NCCCCCCCCCCCC(O)(P(=O)(O)O)P(=O)(O)O [Compound 9, (12-Amino-1-hydroxydodecylidene)bisphosphonic acid]"
178,150–248 °C,181,146–245 °C,180,7.79,–,–,–,–,–,–,–,–,–,–,178,181,39,about 200 °C,–,"NCCCCCCCCCCCCCCCC(O)(P(=O)(O)O)P(=O)(O)O [Compound 10, (16-Amino-1-hydroxyhexadecylidene)bisphosphonic acid]"
